Results published in the NIST ThermoML archive (doi:10.1021/je025566c).

Conditions: Liquid

CC(O)c1ccccc1 (centres undefined) [1-phenylethanol]
Conditions | vapor or sublimation pressure [kPa]
353.15 K | 0.76
358.41 K | 1.033
362.36 K | 1.296
366.37 K | 1.613
371.46 K | 2.112
373.15 K | 2.301
377.83 K | 2.909
382.98 K | 3.728
387.28 K | 4.557
393.15 K | 5.934
393.34 K | 5.985
398.01 K | 7.325

CCOCCO [2-ethoxyethan-1-ol]
Conditions | vapor or sublimation pressure [kPa]
333.15 K | 5.3
343.15 K | 8.646
353.15 K | 13.62

CCCCOC=O [butyl methanoate]
Conditions | vapor or sublimation pressure [kPa]
313.16 K | 7.978
318.33 K | 10.19
323.32 K | 12.79
328.57 K | 16.08
333.14 K | 19.5
333.15 K | 19.5
343.14 K | 29.1
343.15 K | 29.1
353.14 K | 42.24
353.15 K | 42.24
358.67 K | 51.34

Oc1ccccc1 [phenol]
Conditions | vapor or sublimation pressure [kPa]
353.15 K | 2.037
373.15 K | 5.541
393.15 K | 13.15
